Where two headings read alike, the source gives them in different places.
Legend:
H1819 = experiment: Cell viability dose-response, H1819; type: cell-based, human
Protocol: (§1) FIG. 6A. […] Cell viability is plotted vs. compound concentration. Compound was added to cells plated at 15% confluence in 96-well plates in RPMI-1640 media supplemented with 5% Fetal Bovine Serum and 2 mM L-Glutamine. After 4 days of incubation, ATP levels were measured using Cell Titer Glo (Promega). Data are presented as the average of 2 replicates ±SEM.
(§2) Selectivity may be measured by the half maximal inhibitory concentration (IC50), which, as used herein, is a measure of the effectiveness of a compound in killing cells. This quantitative measure indicates how much of a particular compound is needed to kill a particular cell population by half (e.g., as indicated by the amount of ATP). […] The IC50 can be determined by constructing a dose-response curve. The lower the IC50, the higher the potency, and the greater the difference between IC50 values for different cell lines (e.g., sensitive lines vs. insensitive lines, and sensitive lines vs. normal lines) the greater the selectivity. […]
(§3) With this information, we synthesized and tested a series of small molecules derived in conception from the oxalamide and chromone scaffold including N-acyl ureas, as shown in Tables 6-8. Each compound was tested in a 12-point dose-response study starting at 50 micromolar and decreasing in 3-fold increments to sub-nanomolar concentrations, in duplicate. Additionally, one or more additional cell line was tested in the same way.

H2122 = experiment: Cell viability dose-response, H2122; type: cell-based, human
Protocol: as §1, §2, §3

[1] = Homo sapiens, NCI-H1819, 12-point dose-response starting at 50 micromolar, 3-fold increments, in duplicate, read-out: toxicity data, H1819
[2] = Homo sapiens, NCI-H2122, 12-point dose-response starting at 50 micromolar, 3-fold increments, in duplicate, read-out: toxicity data, H2122
[3] = 12-point dose-response starting at 50 micromolar, 3-fold increments, in duplicate, read-out: toxicity data, H2122
[4] = Homo sapiens, NCI-H2122, Tables 3 and 4, read-out: IC50 (uM) vs indicated non-small cell lung cancer cell line H2122

SMILES: COc1ccc(CCNC(=O)C(=O)Nc2cccc(F)c2)cc1 [SW2068S9-1-A]
- IC50 (H1819; [1]): ≥ 49.5 µM
- IC50 (H2122; [2]): 2.26 µM

SMILES: COc1ccc(CCNC(=O)C(=O)Nc2ccc(Cl)cc2)cc1 [SW027951-2-A]
- IC50 (H1819; 12-point dose-response starting at 50 micromolar, 3-fold increments, in duplicate, read-out: toxicity data, H1819): ≥ 49.5 µM
- IC50 (H2122; [3]): 0.28 µM

SMILES: COc1ccc(CCNC(=O)C(=O)Nc2cccc(Br)c2)cc1 [SW027952-2-A]
- IC50 (H1819; [1]): ≥ 49.5 µM
- IC50 (H2122; [3]): 3.1 µM

SMILES: COc1ccc(CCNC(=O)C(=O)Nc2ccccc2OC)cc1 [SW027954-2-A]
- IC50 (H1819; [1]): ≥ 49.5 µM
- IC50 (H2122; [2]): ≥ 49.5 µM

SMILES: COc1ccc(CCNC(=O)C(=O)Nc2ccccc2F)cc1 [SW027962-2-A]
- IC50 (H1819; [1]): ≥ 49.5 µM
- IC50 (H2122; [2]): ≥ 49.5 µM

SMILES: O=C(NCCc1ccccc1)C(=O)Nc1ccc(Cl)cc1 [SW113361-2-A]
- IC50 (H1819; [1]): ≥ 49.5 µM
- IC50 (H2122; [2]): ≥ 49.5 µM

SMILES: COc1ccc(NC(=O)Nc2ccc(OC)cc2)cc1 [SW113878-2-A]
- IC50 (H1819; [1]): ≥ 49.5 µM
- IC50 (H2122; [2]): ≥ 49.5 µM

SMILES: COc1ccc2nc(NS(=O)(=O)c3ccc4c(c3)OCCO4)sc2c1 [SW202748]
- IC50 (H1819; Homo sapiens, NCI-H1819, Tables 3 and 4, read-out: IC50 (uM) vs indicated non-small cell lung cancer cell line H1819): 69 µM

SMILES: C#CCOc1ccc2nc(NC(=O)c3ccc(C(=O)c4ccccc4)cc3)sc2c1 [SW202868]
- IC50 (H2122; [4]): 0.005 µM

SMILES: COc1ccc2nc(NC(=O)c3ccc(C(=O)N4CCN(C)CC4)cc3)sc2c1 [SW203669]
- IC50 (H2122; [4]): ≥ 49.5 µM

SMILES: COc1ccc2nc(NC(=O)c3ccc(Nc4ccccc4)cc3)sc2c1 [SW203670]
- IC50 (H2122; [4]): 0.108 µM

SMILES: COc1ccc(Nc2ccc(C(=O)Nc3nc4ccc(OC)cc4s3)cc2)cc1 [SW203671]
- IC50 (H2122; [4]): 0.314 µM

SMILES: COc1ccc2nc(NC(=O)c3ccc(C(O)c4ccccn4)cc3)sc2c1 (centres unmarked) [SW203726]
- IC50 (H2122; [4]): 0.029 µM

SMILES: COc1ccc2nc(NC(=O)c3ccc(C(=O)c4ccccn4)cc3)sc2c1 [SW203727]
- IC50 (H2122; [4]): 0.016 µM

SMILES: COc1ccc2nc(NC(=O)c3ccc(N=[N+]=[N-])cc3)sc2c1 [SW203728]
- IC50 (H2122; [4]): 0.12 µM

SMILES: COc1ccc2nc(NC(=O)c3ccc(C(=O)N4CCCCC4)cc3)sc2c1 [SW203730]
- IC50 (H2122; [4]): 0.845 µM

SMILES: COc1ccc2nc(NC(=O)c3ccc(C(=O)N4CCOCC4)cc3)sc2c1 [SW203731]
- IC50 (H2122; [4]): 2.28 µM

SMILES: COc1ccc2nc(NC(=O)c3ccc(C(=O)NCc4ccccc4)cc3)sc2c1 [SW203732]
- IC50 (H2122; [4]): 0.013 µM

SMILES: COc1ccc2nc(NC(=O)c3ccc(C(=O)c4cccnc4)cc3)sc2c1 [SW203733]
- IC50 (H2122; [4]): 0.017 µM

SMILES: C#CCOCCOCCOCCOCCOc1ccc2nc(NC(=O)c3ccc(C(=O)c4ccccc4)cc3)sc2c1 [SW203734]
- IC50 (H2122; [4]): 0.939 µM

SMILES: COc1ccc2nc(NC(=O)c3ccc(C(O)c4ccncc4)cc3)sc2c1 (centres unmarked) [SW203735]
- IC50 (H2122; [4]): 0.036 µM

SMILES: COc1ccc(CCNC(=O)C(=O)Nc2ccc(F)c(Cl)c2)cc1 [SW206860-1-A]
- IC50 (H1819; [1]): ≥ 49.5 µM
- IC50 (H2122; [2]): 0.738 µM

SMILES: COc1ccc(CCNC(=O)C(=O)Nc2cc(F)cc(Cl)c2)cc1 [SW206861-1-A]
- IC50 (H1819; [1]): 44.2 µM
- IC50 (H2122; [2]): ≥ 49.5 µM

SMILES: COc1ccc(CCNC(=O)C(=O)Nc2cc(F)ccc2Cl)cc1 [SW206862-1-A]
- IC50 (H1819; [1]): ≥ 49.5 µM
- IC50 (H2122; [2]): ≥ 49.5 µM

SMILES: COc1ccc(CCNC(=O)C(=O)Nc2ccc(F)cc2Cl)cc1 [SW206863-1-a]
- IC50 (H1819; [1]): ≥ 49.5 µM
- IC50 (H2122; [2]): ≥ 49.5 µM

SMILES: COc1ccc(CCNC(=O)C(=O)Nc2cc(Cl)ccc2C)cc1 [SW206866-1-A]
- IC50 (H1819; [1]): ≥ 49.5 µM
- IC50 (H2122; [2]): ≥ 49.5 µM

SMILES: COc1ccc(CCNC(=O)C(=O)Nc2cc(C)ccc2Cl)cc1 [SW206867-1-A]
- IC50 (H1819; [1]): ≥ 49.5 µM
- IC50 (H2122; [2]): ≥ 49.5 µM

SMILES: COc1ccc(CCNC(=O)C(=O)Nc2c(C)cccc2Cl)cc1 [SW206868-1-A]
- IC50 (H1819; [1]): ≥ 49.5 µM
- IC50 (H2122; [2]): ≥ 49.5 µM

SMILES: COc1ccc(CCNC(=O)C(=O)Nc2cc(Cl)cc(C(F)(F)F)c2)cc1 [SW206869-1-A]
- IC50 (H1819; [1]): ≥ 49.5 µM
- IC50 (H2122; [2]): ≥ 49.5 µM

SMILES: COc1ccc(CCNC(=O)C(=O)Nc2cc(OC)ccc2Cl)cc1 [SW206870-1-A]
- IC50 (H1819; [1]): ≥ 49.5 µM
- IC50 (H2122; [2]): ≥ 49.5 µM

SMILES: COc1ccc(CCNC(=O)C(=O)Nc2cccc(OC)c2)cc1 [SW206871-1-A]
- IC50 (H1819; [1]): ≥ 49.5 µM
- IC50 (H2122; [2]): 0.932 µM

SMILES: COc1ccc2nc(NC(=O)c3ccc(C(O)c4ccccc4)cc3)sc2c1 (centres unmarked) [SW207003]
- IC50 (H2122; [4]): 0.006 µM

SMILES: C#CCOc1ccc(CCNC(=O)C(=O)Nc2ccc(C(=O)c3ccccc3)cc2)cc1 [SW207038]
- IC50 (H2122; Homo sapiens, NCI-H2122, cell prints its own unit, 12-point dose-response starting at 50 micromolar, read-out: toxicity data, H2122): > 1 µM
